Results on one compound are retold here after US6809112B2, “Method of treating sexual disturbances” (priority 1999, dated 2004).

`CN[C@@H]1Cc2cccc3[nH]c(=S)n(c23)C1.O=C(O)CC(O)C(=O)O` came in with a melting point of 195 to 196 °C.

What is called melting point is the temperature of the solid-liquid transition.
